Measured values as given in publication PMC11470957, “Principles of paralog-specific targeted protein degradation engaging the C-degron E3 KLHDC2” (Nature Communications, 2024).
Where “and” joins values, the source holds several entries; their conditions need not be identical. Equal values may be shown once.

Columns and labels:
KLHDC2^SBD [1] = molecular target: T1, KLHDC2^SBD (Homo sapiens, UniProt Q9Y2U9); assay: TR-FRET assay, competition with di-Gly degron peptide binding to KLHDC2^SBD; set-up: KLHDC2^SBD (15-361) and its Avi-tagged counterpart were expressed in E. coli Rosetta2 cells; 6XHis-MBP (N, cleaved yes); made in house; host or cells: E. coli Rosetta2; conditions: for IC50: inhibition of KLHDC2^SBD binding to a di-Gly degron peptide, read-out: TR-FRET IC50
T1 sequence (Q9Y2U9 15-361): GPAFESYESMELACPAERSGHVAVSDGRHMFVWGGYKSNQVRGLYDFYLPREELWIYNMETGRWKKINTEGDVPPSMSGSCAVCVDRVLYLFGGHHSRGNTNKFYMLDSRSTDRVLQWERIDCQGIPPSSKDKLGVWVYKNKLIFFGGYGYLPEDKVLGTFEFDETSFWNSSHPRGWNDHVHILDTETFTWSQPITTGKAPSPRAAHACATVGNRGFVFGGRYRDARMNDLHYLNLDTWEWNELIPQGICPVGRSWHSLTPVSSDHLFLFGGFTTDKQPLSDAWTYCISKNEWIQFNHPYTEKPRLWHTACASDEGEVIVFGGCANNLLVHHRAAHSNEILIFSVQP
Protocol: TR-FRET assays were carried out in black 384-well microtiter plates at a final volume of 20 μL per well. An assay cocktail was prepared as a mixture of 50 nM Biotin-KLHDC2 SBD, 20 nM AlexaFluor488-RIC8B peptide, 2.5 nM Tb-Streptavidin (ThermoFisher) in assay buffer (25 mM HEPES, 100 mM NaCl, 0.1% Triton X-100, 0.5 mM DTT, pH 7.5). The assay cocktail was incubated for thirty-minutes at room temperature and 20 μl distributed to assay plates. Molecules were distributed to the plates at the indicated concentration and the assay mixture was incubated for 1 h at room temperature prior to measuring the TR-FRET signal with a PHERAstar FS plate reader (BMG Labtech) equipped with modules for excitation at 337 nm and emissions at 490 and 520 nm. The integration start was set to 100 µs and the integration time to 200 µs. The number of flashes was fixed at 100. The ratio of 520/490 was used as TR-FRET signal in calculations. Assay endpoints were normalized to 100% (buffer only) and used for curve fitting in Prism.

KLHDC2^SBD [2] = molecular target: T1, KLHDC2^SBD; assay: Surface plasmon resonance binding to KLHDC2; set-up: KLHDC2^SBD (15-361) and its Avi-tagged counterpart were expressed in E. coli Rosetta2 cells; 6XHis-MBP (N, cleaved yes); made in house; host or cells: E. coli Rosetta2; conditions: for SPR Rmax / SPR dissociation constant kd: n=1; for Kd: read-out: SPR Kd; for SPR Response: FigS2d
Protocol: Surface plasmon resonance (SPR) was utilized to determine kinetic parameters and binding affinity of KLHDC2 substrates using a PioneerFE (Sartorius). Experiments were carried out in 20 mM Tris, 200 mM NaCl, 1 mM TCEP, 0.01% Brij35, and 1% DMSO at pH 7.4 as a running buffer with a 100 µL/min flow rate at 20 °C.
The 10xHis-KLHDC2 was immobilized onto a Ni-NTA-coated biosensor chip (HisCap). The chip surface was conditioned using 10 mM HCl, 50 mM NaOH, and 0.1% SDS (50 µL at 100 µL/min) twice, followed by a 100 mM Tris buffer wash (100 µL at 100 µL/min). The surface was then activated using an injection of 0.5 M EDTA (125 µL at 25 µL/min) followed by an injection of 5 mM NiCl2 (125 µL at 25 µL/min). […] Channel 2 was treated identically to channel 3 except for protein loading to be used as a reference channel. […] 100% of the loop was injected with a 300 s dissociation time. All samples were run in triplicate. Data was analyzed using Qdat software and fit to a simple 1-site model.
The SPR experiments were performed to determine the binding affinities (KD) of KLHDC2-SJ46411 and KLHDC2-SJ46418 complexes. All the experiments were performed using a Biacore 1S+ instrument. […] The running buffer consisted of 20 mM Tris pH 7.5, 200 mM NaCl, 1 mM TCEP, 0.01% Brij35, and 4% DMSO. […] In brief, before the immobilization, the sensor chip surface was conditioned by injecting a mixture of (3:1 v/v) 8 M guanidine hydrochloride and 1 M NaOH at a flow rate of 5 μL/min for 2 min for two times. Then, running buffer was injected at a 30 μl/min flow rate for 1 min 3 times. Next, the Biotin CAPture reagent was injected at a flow rate of 2 μl/min for 5 min. Then, biotinylated KLHDC2 was only injected onto the active channel (channel 2).
Sample preparation was carried out precisely the same as SJ46411. All experiments were performed using a multi-cycle analysis method with a 30 μl/min flow rate, 120 S association, and 240 s dissociation time. All data were reference subtracted and corrected for DMSO mismatch. The sensorgrams were analyzed using Biacore insight evaluation software, and KD was determined using the 1:1 steady-state affinity fitting. Finally, all the analyzed data was replotted using GraphPad Prizm 10 software.

KLHDC2^SBD [3] = molecular target: T1, KLHDC2^SBD; assay: ITC, binary binding of small molecule to KLHDC2^SBD
[4] = ITC Kd, cell: ligand, syringe: KLHDC2^SBD
[5] = cell: ligand, syringe: KLHDC2^SBD

Structure (SMILES): O=C(O)CNC(=O)Cc1csc(-c2ccccc2F)n1 [SJ6145]
- % Inhibition, normalized TR-FRET dose response (KLHDC2^SBD [1]; Log Concentration (uM 2.8348)): 0%
- % Inhibition, normalized TR-FRET dose response (KLHDC2^SBD [1]; Log Concentration (uM 3.13583)): 5.022%
- % Inhibition, normalized TR-FRET dose response (KLHDC2^SBD [1]; Log Concentration (uM 4.64098)): 41.3917%
- % Inhibition, normalized TR-FRET dose response (KLHDC2^SBD [1]; Log Concentration (uM 4.94201)): 60.6887%
- % Inhibition, normalized TR-FRET dose response (KLHDC2^SBD [1]; Log Concentration (uM 5.24304)): 71.5686%
- % Inhibition, normalized TR-FRET dose response (KLHDC2^SBD [1]; Log Concentration (uM 5.54407)): 79.1487%
- IC50 (KLHDC2^SBD [1]): 42000 nM
- SPR Rmax (KLHDC2^SBD [2]): 8.25 +/- 0.01
- SPR dissociation constant kd (KLHDC2^SBD [2]): 4.19 s⁻¹
- Kd (KLHDC2^SBD [2]): 16900 nM

Structure (SMILES): COCOc1ccc(-c2nc(CC(=O)NCC(=O)O)cs2)c(Cl)c1 [SJ10278]
- % Inhibition, normalized TR-FRET dose response (KLHDC2^SBD [1]; Log Concentration 2, Rep1): 8.293%
- % Inhibition, normalized TR-FRET dose response (KLHDC2^SBD [1]; Log Concentration 2, Rep2): 0%
- % Inhibition, normalized TR-FRET dose response (KLHDC2^SBD [1]; Log Concentration 2, Rep3): 0%
- % Inhibition, normalized TR-FRET dose response (KLHDC2^SBD [1]; Log Concentration 3.39794, Rep1): 11.5657%
- % Inhibition, normalized TR-FRET dose response (KLHDC2^SBD [1]; Log Concentration 3.39794, Rep2): 0%
- % Inhibition, normalized TR-FRET dose response (KLHDC2^SBD [1]; Log Concentration 3.39794, Rep3): 5.531%
- % Inhibition, normalized TR-FRET dose response (KLHDC2^SBD [1]; Log Concentration 3.87506, Rep1): 26.5428%
- % Inhibition, normalized TR-FRET dose response (KLHDC2^SBD [1]; Log Concentration 3.87506, Rep2): 8.417%
- % Inhibition, normalized TR-FRET dose response (KLHDC2^SBD [1]; Log Concentration 3.87506, Rep3): 8.069%
- % Inhibition, normalized TR-FRET dose response (KLHDC2^SBD [1]; Log Concentration 4.35218, Rep1): 43.4059%
- % Inhibition, normalized TR-FRET dose response (KLHDC2^SBD [1]; Log Concentration 4.35218, Rep2): 37.2745%
- % Inhibition, normalized TR-FRET dose response (KLHDC2^SBD [1]; Log Concentration 4.35218, Rep3): 43.973%
- % Inhibition, normalized TR-FRET dose response (KLHDC2^SBD [1]; Log Concentration 4.81291, Rep1): 67.7021%
- % Inhibition, normalized TR-FRET dose response (KLHDC2^SBD [1]; Log Concentration 4.81291, Rep2): 64.6478%
- % Inhibition, normalized TR-FRET dose response (KLHDC2^SBD [1]; Log Concentration 4.81291, Rep3): 77.6282%
- IC50 (KLHDC2^SBD [1]): 24100 nM
- SPR Rmax (KLHDC2^SBD [2]): 11.33 +/- 0.02
- SPR dissociation constant kd (KLHDC2^SBD [2]): 2.03 s⁻¹
- Kd (KLHDC2^SBD [2]): 8800 nM and 8790 nM

Structure (SMILES): O=C(O)CNC(=O)Cc1csc(-c2ccc3ccccc3c2)n1 [SJ46411]
- Kd (KLHDC2^SBD [3]; [4]): ~260 nM and 220 nM
- Kd (KLHDC2^SBD [3]; Kd, ITC, syringe KLHDC2, cell compound, Rep1, Rep2): 202 nM and 238 nM
- ITC -TΔS (KLHDC2^SBD [3]; [5]): -1.52 +/- 0.04 kcal/mol-1
- ITC stoichiometry of binding N (KLHDC2^SBD [3]; [5]): 0.9
- ITC ΔG (KLHDC2^SBD [3]; [5]): -8.81 +/- 0.07 kcal/mol-1
- ITC ΔH (KLHDC2^SBD [3]; [5]): -7.30 +/- 0.10 kcal/mol-1
- % Inhibition, normalized TR-FRET dose response (KLHDC2^SBD [1]; Log Concentration 2.39794, Rep1-Rep3): 6.354% and 5.4752% and 4.71%
- % Inhibition, normalized TR-FRET dose response (KLHDC2^SBD [1]; Log Concentration 2.64098, Rep1-Rep3): 7.948% and 6.2789% and 8.198%
- % Inhibition, normalized TR-FRET dose response (KLHDC2^SBD [1]; Log Concentration 3.273, Rep1-Rep3): 31.9514% and 32.2878% and 31.935%
- % Inhibition, normalized TR-FRET dose response (KLHDC2^SBD [1]; Log Concentration 3.87506, Rep1-Rep3): 66.95% and 63.4771% and 63.8138%
- % Inhibition, normalized TR-FRET dose response (KLHDC2^SBD [1]; Log Concentration 4.39794, Rep1-Rep3): 94.0253% and 93.427% and 93.3896%
- % Inhibition, normalized TR-FRET dose response (KLHDC2^SBD [1]; Log Concentration 4.69897, Rep1-Rep3): 96.203% and 95.4411% and 96.0366%
- % Inhibition, normalized TR-FRET dose response (KLHDC2^SBD [1]; Log Concentration 4.94201, Rep1-Rep3): 96.4266% and 96.3416% and 96.2278%
- IC50 (KLHDC2^SBD [1]): 3900 nM
- SPR Response (KLHDC2^SBD [2]; analyte 0.146484 μM): 4.647 RU
- SPR Response (KLHDC2^SBD [2]; analyte 0.292969 μM): 7.784 RU
- SPR Response (KLHDC2^SBD [2]; analyte 0.585938 μM): 11.5982 RU
- SPR Response (KLHDC2^SBD [2]; analyte 2.34375 μM): 17.8875 RU
- SPR Response (KLHDC2^SBD [2]; analyte 4.6875 μM): 19.5092 RU
- SPR Response (KLHDC2^SBD [2]; analyte 9.375 μM): 20.5795 RU
- SPR Rmax (KLHDC2^SBD [2]): 24.50 +/- 0.30
- Kd (KLHDC2^SBD [2]): 500 nM and 526 nM

Structure (SMILES): Cc1sc2c(c1C)C(c1ccc(Cl)cc1)=N[C@@H](CC(=O)N1CCN(CCOc3cccc4ccc(-c5nc(CC(=O)NCC(=O)O)cs5)cc34)CC1)c1nnc(C)n1-2 [SJ46421]
- Kd (KLHDC2^SBD [3]; [4]): 304 ± 39 nM
- Kd (KLHDC2^SBD [3]; Kd, Rep1/Rep2, ITC source data Fig4a, syringe KLHDC2, cell PROTAC alone): 338 nM and 269 nM
- ITC -TΔS (KLHDC2^SBD [3]; [5]): -1.03 +/- 0.22 kcal/mol-1
- ITC stoichiometry of binding N (KLHDC2^SBD [3]; [5]): 0.8
- ITC ΔG (KLHDC2^SBD [3]; [5]): -9.1 +/- 0.02 kcal/mol-1
- ITC ΔH (KLHDC2^SBD [3]; [5]): -8.07 +/- 0.22 kcal/mol-1
